# Like-named read-outs stand apart in the source and are kept apart here.
# Legend:
# Thermodynamic solubility = type: physicochemical; conditions: for solubility thermodynamic at 24 h: 37 °C, thermodynamic from solid
# Excerpt: 4.2. Thermodynamic Solubility
# Poor solubility, in particular poor thermodynamic solubility can limit the absorption of compounds from the gastrointestinal tract which in turn may reduce oral bioavailability.
# Thermodynamic solubility investigates the solubility of a compound as a saturated solution in equilibrium, by opposition to kinetic solubility, which measures the solubility of a metastable solution where supersaturation may occur and provide over estimation of the actual solubility of the compound. (Klein, 2010)
# 4.2.2. Thermodynamic Solubility—Protocol 2
# In a 8 mL glass vial, 1-2 mg of dry matter of compound were added and stirred with the suitable buffers (Fed State Simulated Intestine Fluid, FeSSIF, or Fasted State Simulated Intestine Fluid, FaSSIF, or Fasted State Simulated Gastric Fluid, FaSSGF, or phosphate buffer pH 7.4) for 24 h at r.t. (for the buffer pH 7.4) or 37° C. (for the GI fluids). The concentration of the mixture was 1 mg/mL.
# A volume of 1000 μL were sampled, centrifuged for 10 min at 10 000 rpm and 500 μL of the supernatant were filtered on captiva plate. The samples were diluted in duplicates in DMSO (F100 and F10). Then, a final dilution (F100) in 80/20 H2O/MeCN containing the internal standard (warfarin) was used for LCMS-MS analysis.
# A standard curve was made starting from a 40,000 ng/mL stock in DMSO, freshly prepared from dry matter. Then, successive concentrations at 15,000, 11,000, 6,000, 2,500, 1,000, 375, 150 and 75 ng/mL in DMSO were prepared.
# Three quality control samples were made: one of 10,000, 1,500 and 200 ng/mL in DMSO, also starting from the DMSO working stock solution at 40,000 ng/mL.
# The standard curve and quality controls were diluted a F100 in 80/20 H2O/MeCN (with internal standard) and analyzed on LC/MS-MS (API4000 or API5500).
# The samples were analyzed on LC-MS with a flow rate of 0.6 mL/min. The mobile phase A was 0.1% formic acid in water and the mobile phase B was 0.1% formic acid in 90% MeCN and 10% of H2O. The sample was run under positive or negative ion spray on Pursuit C18—5 μm (2.0×20 mm) column, from Agilent.
# The ratio analyte/internal standard peaks areas of the standard curve were plotted in a graph and a linear or polynomial of the second order equation was used to calculate the unknown concentrations of the test compound.
# Solubility values were reported in μg/mL.
# [1] = test system: CL097 triggered IFNα release in human whole blood; experiment: Ex vivo human IFNα release inhibition (human whole blood assay); type: cell-based; conditions: Homo sapiens, CL097 2 μg/mL, 3 h 30 min at 37° C.
# Excerpt: 4.10.1. Ex Vivo Human IFNα and TNFα Release Inhibition (Human Whole Blood Assay)
# The aim of the assay is to evaluate the activity of compounds of the invention on the activated TLR/IRAK-4 pathway in an ex vivo human whole blood setting. Toll-like receptors (TLRs) are pattern recognition receptors that recognize a wide variety of microbial molecules, called pathogen-associated molecular patterns (PAMPs). Human TLR7 and TLR8 recognize imidazoquinoline compounds (e.g., CL097—CAS n #1026249-18-2) and single stranded RNAs as their natural ligands. Activation of TLRs leads to the production of several cytokines (e.g., IFNα, TNFα, IL-8, IL-6) by the TLR agonist-treated cells, whereas IRAK4 leads to the production of IFNα. Cytokine release is used as readout in this assay and represents a measure for the level of inhibition of the TLR/IRAK-4 pathway by the tested compound. It should be noted that in the context of the complete organism, other sources for these cytokines exist that are not dependent on the TLR/IRAK-4 pathway, such as e.g., macrophages (upon activation of the Fcγ receptor (Yan et al., 2012)) or T cells (upon activation of the T cell receptor (Brehm et al., 2005)).
# 4.10.1.1. Experimental Design
# Blood was collected from healthy volunteers into lithium heparin tubes by venipuncture, then gently inverted several times to prevent clotting and incubated for at least 15 min at 37° C. on a rocking mixer shaker. Then, 100 μL of blood was dispensed into polypropylene 96-well microplate and pre-incubated in duplicate with 0.3% DMSO or test compound at different concentrations (from 30 to 0.01 μM, 3-fold dilutions to get 0.3% DMSO at the final) for 15 min at 37° C. After this pre-incubation, blood was triggered with CL097 (2 μg/mL from 1 mg/mL solution in water; InvivoGen, tlrl-c97) for 3 h 30 min at 37° C. Microtubes were centrifuged at 5000×g for 10 min at 4° C. and approximately 40 μL of plasma were collected into a polystyrene 96-well plate. Plasma could be analyzed freshly, within 30 min after triggering, or frozen at −80° C. Finally, the quantification of TNFα and IFNα were performed in the plasma using AlphaLISA Kit for TNFα and IFNα according to the manufacturer's instructions and read on the Ensight (PerkinElmer).
# A standard curve was created by plotting on log-log the mean […] on the y-axis against the concentration on the x-axis and a 4-parameters logistic regression (4PL) was made through the points. For each blood sample, the IFNα concentrations of the samples were determined from the fit. Data were then expressed as a percentage of inhibition (PIN) for each replicate using the formula:
# With mean IFNα with CL097=mean IFNα concentration of replicate samples triggered with CL097; IFNαsample1=IFNα concentration of sample 1; mean IFNα with vehicle=mean IFNα concentration of replicate samples treated with vehicle.
# Curve fitting for pIC50 determination were generated using mean PIN±sem. Graphs and pIC50 calculations were derived using Prism 5.03 software (GraphPad).
# [2] = Fasted State Simulated Gastric Fluid (FaSSGF), fassgf or other biorelevant, Fasted State Simulated Gastric Fluid, read-out: Tsol FaSSGF
# [3] = Fasted State Simulated Intestine Fluid (FaSSIF), fassif, Fasted State Simulated Intestine Fluid, read-out: Tsol FaSSIF
# [4] = Fed State Simulated Intestine Fluid (FeSSIF), fessif, Fed State Simulated Intestine Fluid, read-out: Tsol FeSSIF
SMILES,solubility thermodynamic at 24 h (Thermodynamic solubility; [2]) [µg/mL],solubility thermodynamic at 24 h (Thermodynamic solubility; [3]) [µg/mL],solubility thermodynamic at 24 h (Thermodynamic solubility; [4]) [µg/mL],IC50 [1] [nM],"Tsol FaSSGF (Thermodynamic solubility; Fasted State Simulated Gastric Fluid, 24 h, 37° C.) [µg/mL]"
"CCOc1cn2nc(CCC(C)(C)O)cc2cc1NC(=O)c1cccn(C)c1=O [Compound 18, N-[6-ethoxy-2-(3-hydroxy-3-methyl-butyl)pyrazolo[1,5-a]pyridin-5-yl]-1-methyl-2-oxo-pyridine-3-carboxamide]",68.9,20.6,84.1,1000 to 5000,
"CCOc1cn2nc(CCC(C)(C)O)cc2cc1NC(=O)c1cccn(C2CC2)c1=O [Compound 17, 1-cyclopropyl-N-[6-ethoxy-2-(3-hydroxy-3-methyl-butyl)pyrazolo[1,5-a]pyridin-5-yl]-2-oxo-pyridine-3-carboxamide]",75.7,24.6,81,1000 to 5000,
"CC(C)(O)CCc1cc2cc(NC(=O)c3cccc(C(F)F)n3)c(C(N)=O)cn2n1 [Compound 20, 5-[[6-(difluoromethyl)pyridine-2-carbonyl]amino]-2-(3-hydroxy-3-methyl-butyl)pyrazolo[1,5-a]pyridine-6-carboxamide]",1.62,3.09,,1000 to 5000,

# Continued, values first:
solubility thermodynamic at 24 h (Thermodynamic solubility; [2]) [µg/mL],solubility thermodynamic at 24 h (Thermodynamic solubility; [3]) [µg/mL],solubility thermodynamic at 24 h (Thermodynamic solubility; [4]) [µg/mL],IC50 [1] [nM],"Tsol FaSSGF (Thermodynamic solubility; Fasted State Simulated Gastric Fluid, 24 h, 37° C.) [µg/mL]",SMILES
50.6,14,75.9,500 to 1000,,"COc1cn2nc(CC(F)C(C)(C)O)cc2cc1NC(=O)c1cccn(C2CC2)c1=O (centres unmarked) [Compound 22, 1-cyclopropyl-N-[2-(2-fluoro-3-hydroxy-3-methyl-butyl)-6-methoxy-pyrazolo[1,5-a]pyridin-5-yl]-2-oxo-pyridine-3-carboxamide]"
,20.2,59.6,500 to 1000,389,"COc1cn2nc(CC(F)C(C)(C)O)cc2cc1NC(=O)c1cccn(C2CC2)c1=O (single isomer, unassigned; enantiomer a) [Compound 25, 1-cyclopropyl-N-[2-(2-fluoro-3-hydroxy-3-methyl-butyl)-6-methoxy-pyrazolo[1,5-a]pyridin-5-yl]-2-oxo-pyridine-3-carboxamide Enantiomer A]"
8.26,12.5,70.6,500 to 1000,,"CNC(=O)c1cn2nc(CCC(C)(C)O)cc2cc1NC(=O)c1cccc(C(F)F)n1 [Compound 19, 5-[[6-(difluoromethyl)pyridine-2-carbonyl]amino]-2-(3-hydroxy-3-methyl-butyl)-N-methyl-pyrazolo[1,5-a]pyridine-6-carboxamide]"
,11.3,83.4,0.1 to 500,,"COc1cn2nc(CCC(C)(C)O)cc2cc1NC(=O)c1cccn(C2CC2)c1=O [Compound 1, 1-cyclopropyl-N-[2-(3-hydroxy-3-methylbutyl)-6-methoxypyrazolo[1,5-a]pyridin-5-yl]-2-oxopyridine-3-carboxamide]"
